Measurements published in US10357036B2, “Compounds for controlling arthropods” (priority 2015, dated 2019).

Tests used:
Musca domestica = Musca domestica test; format: in vivo; conditions: 100 ppm; adult houseflies; after 2 days
Protocol: (§1) • Solvent: dimethyl sulfoxide
To produce a suitable active ingredient formulation, 10 mg of active ingredient are mixed with 0.5 ml of dimethyl sulfoxide, and the concentrate is diluted with water to the desired concentration.
Vessels containing a sponge treated with sugar solution and the active ingredient formulation of the desired concentration are populated with 10 adult houseflies (Musca domestica).

Phaedon cochleariae = Phaedon cochleariae spray test; conditions: 100 g/ha; after 7 days
Boophilus microplus = Boophilus microplus injection test; format: in vivo; conditions: 20 μg/animal; assessed after 7 days
Protocol: as §1
1 μl of the active ingredient solution is injected into the abdomen of 5 engorged adult female cattle ticks (Boophilus microplus). The animals are transferred into dishes and kept in a climate-controlled room.

Ctenocephalides felis [1] = experiment: Ctenocephalides felis oral test; format: in vivo; conditions: 100 ppm in citrated cattle blood; after 2 days
Ctenocephalides felis [2] = experiment: Ctenocephalides felis in vitro contact test with adult cat fleas; format: in vivo; conditions: application rate 5 μg/cm^2 (=500 g/ha); after 48 h; dead or moribund fleas
Protocol: For the coating of the test tubes, 9 mg of active ingredient are first dissolved in 1 ml of acetone p.a. and then diluted to the desired concentration with acetone p.a. 250 μl of the solution are distributed homogeneously on the inner walls and the base of a 25 ml glass tube by turning and rocking on an orbital shaker (rocking rotation at 30 rpm for 2 h). With 900 ppm of active ingredient solution and internal surface area 44.7 cm^2, given homogeneous distribution, an area-based dose of 5 μg/cm^2 is achieved.
After the solvent has evaporated off, the tubes are populated with 5-10 adult cat fleas (Ctenocephalides felis), sealed with a perforated plastic lid and incubated in a horizontal position at room temperature and ambient humidity. After 48 h, efficacy is determined. To this end, the tubes are stood upright and the fleas are knocked to the base of the tube. Fleas which remain motionless at the base or move in an uncoordinated manner are considered to be dead or moribund.
100% efficacy means that all the fleas were dead or moribund. 0% efficacy means that no fleas were harmed.

Rhipicephalus sanguineus = Rhipicephalus sanguineus in vitro contact test with adult brown dog ticks; format: in vivo; conditions: after 48 h
In short: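 Efficacy, as % of ticks dead or moribund, was judged 48 h after placing 5-10 adult brown dog ticks in acetone-coated tubes (5 μg/cm^2 from 900 ppm) kept dark at room temperature. Ticks unable to climb away from a 45-50° C hotplate within 5 min counted as affected.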

[3] = system: cattle ticks (Boophilus microplus) Parkhurst strain, SP-resistant; experiment: Boophilus microplus dip test; format: in vivo; conditions: 100 ppm; assessed after 7 days
Protocol: • Test animals: cattle ticks (Boophilus microplus) Parkhurst strain, SP-resistant • Solvent: dimethyl sulfoxide
10 mg of active ingredient are dissolved in 0.5 ml of dimethyl sulfoxide. To produce a suitable formulation, the active ingredient solution is diluted with water to the concentration desired in each case.
This active ingredient formulation is pipetted into tubes. 8-10 engorged adult female cattle ticks (Boophilus microplus) are transferred into a further tube with holes. The tube is immersed into the active ingredient formulation, and all the ticks are completely wetted. After the liquid has run out, the ticks are transferred on filter discs into plastic dishes and stored in a climate-controlled room.
Efficacy is assessed after 7 days by laying of fertile eggs. Eggs which are not visibly fertile are stored in a climate-controlled cabinet until the larvae hatch after about 42 days. An efficacy of 100% means that none of the ticks has laid any fertile eggs; 0% means that all the eggs are fertile.

Tetranychus urticae = Tetranychus urticae spray test, OP-resistant (bean leaf discs); format: in vivo; conditions: 100 g/ha; after 6 days
Protocol: (§2) After 6 days, the efficacy in % is determined.

Spodoptera frugiperda = Spodoptera frugiperda spray test; format: in vivo; conditions: 100 g/ha; after 7 days
Myzus persicae = Myzus persicae spray test (Chinese cabbage leaf discs); format: in vivo; conditions: 100 g/ha; after 6 days
Protocol: as §2

[4] = application rate 5 μg/cm^2 (=500 g/ha), dead or moribund ticks

SMILES	efficacy (rate of extermination) (Musca domestica)	efficacy (Phaedon cochleariae)	efficacy (laying of fertile eggs) (Boophilus microplus)	efficacy (rate of extermination) (Ctenocephalides felis [1])	efficacy (Ctenocephalides felis [2])	efficacy (Rhipicephalus sanguineus; [4])	efficacy (laying of fertile eggs) [3]	efficacy (Tetranychus urticae)	efficacy (Spodoptera frugiperda)	efficacy (Myzus persicae)	efficacy (Rhipicephalus sanguineus; application rate 1 μg/cm^2 (=100 g/ha))
CCC(=O)NCc1cc(-c2cnn(-c3c(C)cc(C(F)(C(F)(F)F)C(F)(F)F)cc3C)c2)ccc1Cl [Ia-93]	100%	100%	100%	100%	100%	100%	95%	100%	100%	–	–
CC(=O)NCc1cccc(-c2cnn(-c3c(Cl)cc(C(F)(C(F)(F)F)C(F)(F)F)cc3OC(F)F)c2)c1F [Ia-155]	100%	100%	100%	100%	–	–	–	–	100%	90%	–
CCC(=O)N(C)Cc1cc(-c2cnn(-c3c(Cl)cc(C(F)(C(F)(F)F)C(F)(F)F)cc3Cl)c2)cnc1Cl [Ia-134]	100%	100%	100%	100%	100%	–	–	100%	100%	100%	–
CCC(=O)NCc1cccc(-c2cnn(-c3c(Cl)cc(C(F)(C(F)(F)F)C(F)(F)F)cc3OC(F)F)c2)c1F [Ia-159]	100%	100%	100%	100%	–	–	–	–	100%	90%	–
CC(=O)NCc1cc(-c2cnn(-c3c(Cl)cc(C(F)(C(F)(F)F)C(F)(F)F)cc3C(F)F)c2)cnc1Cl [Ia-145]	100%	100%	100%	100%	–	–	100%	100%	100%	90%	–
CC(=O)NCc1cc(-c2cnn(-c3c(Cl)cc(C(F)(C(F)(F)F)C(F)(F)F)cc3C(F)F)c2)ccc1Cl [Ia-106]	100%	100%	100%	100%	–	–	100%	100%	100%	–	–
CCC(=O)NCc1cc(-c2cnn(-c3c(Cl)cc(C(F)(C(F)(F)F)C(F)(F)F)cc3C(F)(F)F)c2)ccc1F [Ia-83]	100%	100%	100%	100%	100%	100%	80%	90%	100%	–	–
CCC(=O)NCc1cc(-c2cnn(-c3c(Cl)cc(C(F)(C(F)(F)F)C(F)(F)F)cc3C(F)(F)F)c2)ccc1C [Ia-80]	100%	83%	100%	100%	100%	100%	–	100%	100%	90%	–
CCC(=O)NCc1cc(-c2cnn(-c3c(Cl)cc(C(F)(C(F)(F)F)C(F)(F)F)cc3C(F)F)c2)ccc1Cl [Ia-115]	100%	100%	100%	100%	100%	100%	100%	100%	100%	–	–
CC(=O)N(C)Cc1cc(-c2cnn(-c3c(Cl)cc(C(F)(C(F)(F)F)C(F)(F)F)cc3OC(F)(F)F)c2)cnc1Cl [Ia-136]	100%	100%	100%	100%	100%	–	–	100%	100%	100%	–
CCC(=O)NCc1cc(-c2cnn(-c3c(C)cc(C(F)(C(F)(F)F)C(F)(F)F)cc3Cl)c2)ccc1C [Ia-76]	100%	100%	100%	100%	100%	100%	–	100%	100%	90%	–
CC(=O)NCc1cc(-c2cnn(-c3c(C)cc(C(F)(C(F)(F)F)C(F)(F)F)cc3Cl)c2)ccc1C [Ia-75]	100%	100%	100%	100%	100%	100%	100%	100%	100%	–	–
CC(=O)NCc1c(F)ccc(-c2cnn(-c3c(Cl)cc(C(F)(C(F)(F)F)C(F)(F)F)cc3Cl)c2)c1F [Ia-149]	100%	100%	100%	100%	100%	–	–	100%	100%	90%	–
CC(=O)NCc1cc(-c2cnn(-c3c(Cl)cc(C(F)(C(F)(F)F)C(F)(F)F)cc3C#N)c2)ccc1C [Ia-96]	–	–	100%	100%	–	–	90%	100%	100%	–	100%
CC(=O)NCc1c(F)ccc(-c2cnn(-c3c(Cl)cc(C(F)(C(F)(F)F)C(F)(F)F)cc3C(F)(F)F)c2)c1F [Ia-147]	100%	100%	100%	100%	100%	100%	–	100%	100%	90%	–
CC(=O)NCc1cc(-c2cnn(-c3c(Cl)cc(C(F)(C(F)(F)F)C(F)(F)F)cc3Br)c2)ccc1Cl [Ia-91]	100%	100%	100%	100%	–	–	80%	100%	100%	–	–
CC(=O)NCc1cc(-c2cnn(-c3c(Cl)cc(C(F)(C(F)(F)F)C(F)(F)F)cc3S(C)(=O)=O)c2)ccc1F [Ia-11]	100%	100%	100%	100%	–	100%	–	100%	–	100%	–
CCC(=O)NCc1cccc(-c2cnn(-c3c(Cl)cc(C(F)(C(F)(F)F)C(F)(F)F)cc3Cl)c2)c1F [Ia-152]	100%	100%	100%	100%	–	–	–	–	100%	100%	–
CC(=O)NCc1cc(-c2cnn(-c3c(C)cc(C(F)(C(F)(F)F)C(F)(F)F)cc3Cl)c2)ccc1Cl [Ia-84]	100%	100%	100%	100%	–	–	100%	100%	100%	90%	–
CCC(=O)NCc1cc(-c2cnn(-c3c(Cl)cc(C(F)(C(F)(F)F)C(F)(F)F)cc3C(F)(F)F)c2)cnc1Cl [Ia-138]	–	100%	–	–	–	–	–	90%	100%	90%	–
